The values that follow come from US11987564B2, “PTPRD inhibitors and uses thereof” (United States Government as represented by the Department …, priority 2021, dated 2024).

For orientation: pIC50 means the IC50 on a negative log10 scale, so that one unit is a factor of ten.

Test [1] has as its target PTPRF (Homo sapiens, UniProt P10586). Briefly: pNPP hydrolysis by recombinant PTPRF phosphatase.
Description: (§2) Phosphatase assays: Data for each assay type (3 wells/experimental condition, read using a Spectromax plate reader) was plotted vs time, and results derived from the slopes of linear regions were reported from triplicate independent experiments.
(§3) For assays of compound ligands that were likely pseudo-irreversible, 18 min preincubations were also added. For work determining the effect of flavonoids on pNPP hydrolysis, a 96 well half-area plate was prepared by first filling each well to be tested with 18 μL of 50 μM pNPP and 25 uL of running buffer, and 2 μL of DMSO containing the desired concentration of flavonoid and/or peptide. PTPRD phosphatase was diluted 1:50 in a dilution buffer.
The target in test [2] is T1, PTPRJ (Homo sapiens, UniProt Q12913).
T1 construct: purchased
T1 sequence (Q12913 36-1337): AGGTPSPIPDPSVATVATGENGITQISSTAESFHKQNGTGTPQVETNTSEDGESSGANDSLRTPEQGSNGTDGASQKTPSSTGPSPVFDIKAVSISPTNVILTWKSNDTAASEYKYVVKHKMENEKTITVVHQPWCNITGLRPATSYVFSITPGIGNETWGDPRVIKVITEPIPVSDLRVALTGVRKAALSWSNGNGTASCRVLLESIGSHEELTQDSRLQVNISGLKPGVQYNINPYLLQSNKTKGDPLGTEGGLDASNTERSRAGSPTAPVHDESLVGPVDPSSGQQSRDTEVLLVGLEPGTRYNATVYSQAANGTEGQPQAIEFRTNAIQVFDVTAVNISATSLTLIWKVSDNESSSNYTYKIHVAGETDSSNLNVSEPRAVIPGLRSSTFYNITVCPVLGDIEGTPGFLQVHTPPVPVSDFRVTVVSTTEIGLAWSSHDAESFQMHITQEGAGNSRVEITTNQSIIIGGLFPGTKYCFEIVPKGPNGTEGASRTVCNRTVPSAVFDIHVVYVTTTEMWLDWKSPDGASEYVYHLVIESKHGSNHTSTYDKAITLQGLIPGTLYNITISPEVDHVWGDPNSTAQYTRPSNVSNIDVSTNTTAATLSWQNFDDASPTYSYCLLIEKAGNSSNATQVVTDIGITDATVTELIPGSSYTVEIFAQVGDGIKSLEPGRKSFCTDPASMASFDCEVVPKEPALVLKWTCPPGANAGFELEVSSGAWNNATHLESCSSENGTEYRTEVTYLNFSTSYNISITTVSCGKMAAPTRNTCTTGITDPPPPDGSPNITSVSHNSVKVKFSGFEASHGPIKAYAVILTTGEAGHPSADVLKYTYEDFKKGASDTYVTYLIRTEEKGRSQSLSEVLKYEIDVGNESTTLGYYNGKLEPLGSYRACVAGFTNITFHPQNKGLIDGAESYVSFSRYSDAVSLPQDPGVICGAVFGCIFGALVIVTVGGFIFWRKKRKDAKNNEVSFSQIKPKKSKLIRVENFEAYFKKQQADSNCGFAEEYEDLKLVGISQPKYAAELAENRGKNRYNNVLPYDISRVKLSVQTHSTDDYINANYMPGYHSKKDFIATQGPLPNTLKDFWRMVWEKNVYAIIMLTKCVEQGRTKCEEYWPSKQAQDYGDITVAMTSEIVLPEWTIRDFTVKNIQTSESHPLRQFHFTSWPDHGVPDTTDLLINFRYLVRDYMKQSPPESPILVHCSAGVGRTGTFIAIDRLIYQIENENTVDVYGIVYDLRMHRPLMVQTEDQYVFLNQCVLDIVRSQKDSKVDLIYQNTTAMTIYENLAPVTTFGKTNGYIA
Briefly: pNPP hydrolysis by PTPRJ phosphatase. The format is biochemical. From the text: (§1) Human […] ([…]-pY-[…]) phosphopeptide (Pierce/ThermoFisher) were synthesized.

For test [3], the target named is recombinant PTPRD (Homo sapiens, UniProt P23468). Briefly: pNPP hydrolysis by recombinant PTPRD phosphatase.
Description: as §2, §3
For test [4], the target named is T2, PTPN1 (PTP1B) (Homo sapiens, UniProt P18031).
T2 construct: purchased
T2 sequence (P18031 1-435): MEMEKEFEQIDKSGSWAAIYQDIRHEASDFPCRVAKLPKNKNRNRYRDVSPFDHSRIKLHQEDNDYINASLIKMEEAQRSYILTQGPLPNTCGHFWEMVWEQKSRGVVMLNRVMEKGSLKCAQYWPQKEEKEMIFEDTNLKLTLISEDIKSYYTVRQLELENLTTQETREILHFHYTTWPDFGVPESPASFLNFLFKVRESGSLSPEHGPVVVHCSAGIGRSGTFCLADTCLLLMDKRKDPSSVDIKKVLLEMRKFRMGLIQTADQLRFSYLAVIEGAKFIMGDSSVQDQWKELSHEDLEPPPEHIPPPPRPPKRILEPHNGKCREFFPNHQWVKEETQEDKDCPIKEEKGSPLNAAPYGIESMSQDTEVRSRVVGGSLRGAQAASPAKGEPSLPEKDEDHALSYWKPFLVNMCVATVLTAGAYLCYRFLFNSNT
Briefly: pNPP hydrolysis by PTPN1 (PTP1B) phosphatase. To be noted: untitled table after Table 4; mean, SEM in wrapped line. The format is biochemical.

In test [5] the target is PTPRS (Homo sapiens, UniProt Q13332). Briefly: pNPP hydrolysis by recombinant PTPRS phosphatase. The format is biochemical.
Excerpt: as §1

[6] abbreviates: PTPRF IC50, Table 4, mean (SEM) of three independent experiments, * = instability, no valid triplicate.
[7] abbreviates: PTPRF IC50, untitled table after Table 4, mean, SEM in wrapped line.
The mark [8] stands for this setting: Table 4, mean (SEM) of three independent experiments, * = instability, no valid triplicate.
The mark [9] stands for this setting: untitled table after Table 4, mean, SEM in wrapped line.
Where [10] appears, read: read-out: PTPRD IC50, untitled table after Table 4, mean, SEM in wrapped line, compounds with PTPRD IC50 <5 μM.
Where [11] appears, read: PTPRD IC50, Table 4, mean (SEM) of three independent experiments, * = instability, no valid triplicate.
Setting [12] is: PTPRD IC50, untitled table after Table 4, mean, SEM in wrapped line, compounds with PTPRD IC50 <5 μM.

SMILES strings stand for the structures. pIC50: −log10 of the molar value. Where two headings read alike, the source gives them in different places.

Chain of recombinant PTPRD (P23468 21-1912): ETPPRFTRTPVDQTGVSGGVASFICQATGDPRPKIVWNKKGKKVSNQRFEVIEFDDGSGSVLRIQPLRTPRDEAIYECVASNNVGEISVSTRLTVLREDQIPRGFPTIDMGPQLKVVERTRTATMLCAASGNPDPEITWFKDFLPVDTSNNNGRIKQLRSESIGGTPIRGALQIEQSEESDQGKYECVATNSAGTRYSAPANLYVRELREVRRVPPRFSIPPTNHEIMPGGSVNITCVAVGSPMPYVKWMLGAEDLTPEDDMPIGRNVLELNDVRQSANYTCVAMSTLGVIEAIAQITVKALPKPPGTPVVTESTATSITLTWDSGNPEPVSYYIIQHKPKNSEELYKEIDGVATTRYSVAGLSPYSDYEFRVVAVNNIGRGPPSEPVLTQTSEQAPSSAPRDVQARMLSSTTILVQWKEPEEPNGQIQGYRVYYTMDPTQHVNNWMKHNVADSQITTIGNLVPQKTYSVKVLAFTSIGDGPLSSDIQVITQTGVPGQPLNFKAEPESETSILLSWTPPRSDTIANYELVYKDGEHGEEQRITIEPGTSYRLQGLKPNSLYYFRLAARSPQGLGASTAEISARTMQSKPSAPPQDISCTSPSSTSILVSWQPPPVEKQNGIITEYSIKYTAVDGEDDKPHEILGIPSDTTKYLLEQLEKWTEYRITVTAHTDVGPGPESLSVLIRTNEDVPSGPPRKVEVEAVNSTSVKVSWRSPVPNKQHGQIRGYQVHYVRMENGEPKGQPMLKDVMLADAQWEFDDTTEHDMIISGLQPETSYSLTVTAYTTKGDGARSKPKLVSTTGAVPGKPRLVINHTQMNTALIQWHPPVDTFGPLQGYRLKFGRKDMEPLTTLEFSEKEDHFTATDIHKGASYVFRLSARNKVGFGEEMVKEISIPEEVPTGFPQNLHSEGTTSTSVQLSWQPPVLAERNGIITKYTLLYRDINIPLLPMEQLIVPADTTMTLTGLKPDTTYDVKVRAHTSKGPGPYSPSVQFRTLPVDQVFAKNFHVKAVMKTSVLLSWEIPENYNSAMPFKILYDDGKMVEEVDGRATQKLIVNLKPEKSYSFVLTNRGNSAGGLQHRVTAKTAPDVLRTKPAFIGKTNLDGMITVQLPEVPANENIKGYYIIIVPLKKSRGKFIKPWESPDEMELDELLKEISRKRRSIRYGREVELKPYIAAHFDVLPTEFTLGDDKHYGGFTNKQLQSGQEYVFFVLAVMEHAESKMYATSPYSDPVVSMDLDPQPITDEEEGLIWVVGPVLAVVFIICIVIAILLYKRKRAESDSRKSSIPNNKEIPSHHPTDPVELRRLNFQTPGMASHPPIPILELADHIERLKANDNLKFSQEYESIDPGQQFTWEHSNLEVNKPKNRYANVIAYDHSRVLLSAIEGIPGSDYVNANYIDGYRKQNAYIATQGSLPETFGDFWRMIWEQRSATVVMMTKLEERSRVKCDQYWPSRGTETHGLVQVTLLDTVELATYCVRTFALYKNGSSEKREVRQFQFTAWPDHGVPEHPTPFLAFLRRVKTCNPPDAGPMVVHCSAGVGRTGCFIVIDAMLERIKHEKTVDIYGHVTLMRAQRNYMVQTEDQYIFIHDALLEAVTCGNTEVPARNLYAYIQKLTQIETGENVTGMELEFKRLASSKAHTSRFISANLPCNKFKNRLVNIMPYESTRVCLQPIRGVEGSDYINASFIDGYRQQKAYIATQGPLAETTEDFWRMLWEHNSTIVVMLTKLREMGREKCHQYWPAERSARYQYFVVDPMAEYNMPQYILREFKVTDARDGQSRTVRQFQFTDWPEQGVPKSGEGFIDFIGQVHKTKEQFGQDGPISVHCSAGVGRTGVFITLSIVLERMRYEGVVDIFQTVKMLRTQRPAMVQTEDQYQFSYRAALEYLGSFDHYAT
Chain of PTPRS (Q13332 30-1948, species assumed): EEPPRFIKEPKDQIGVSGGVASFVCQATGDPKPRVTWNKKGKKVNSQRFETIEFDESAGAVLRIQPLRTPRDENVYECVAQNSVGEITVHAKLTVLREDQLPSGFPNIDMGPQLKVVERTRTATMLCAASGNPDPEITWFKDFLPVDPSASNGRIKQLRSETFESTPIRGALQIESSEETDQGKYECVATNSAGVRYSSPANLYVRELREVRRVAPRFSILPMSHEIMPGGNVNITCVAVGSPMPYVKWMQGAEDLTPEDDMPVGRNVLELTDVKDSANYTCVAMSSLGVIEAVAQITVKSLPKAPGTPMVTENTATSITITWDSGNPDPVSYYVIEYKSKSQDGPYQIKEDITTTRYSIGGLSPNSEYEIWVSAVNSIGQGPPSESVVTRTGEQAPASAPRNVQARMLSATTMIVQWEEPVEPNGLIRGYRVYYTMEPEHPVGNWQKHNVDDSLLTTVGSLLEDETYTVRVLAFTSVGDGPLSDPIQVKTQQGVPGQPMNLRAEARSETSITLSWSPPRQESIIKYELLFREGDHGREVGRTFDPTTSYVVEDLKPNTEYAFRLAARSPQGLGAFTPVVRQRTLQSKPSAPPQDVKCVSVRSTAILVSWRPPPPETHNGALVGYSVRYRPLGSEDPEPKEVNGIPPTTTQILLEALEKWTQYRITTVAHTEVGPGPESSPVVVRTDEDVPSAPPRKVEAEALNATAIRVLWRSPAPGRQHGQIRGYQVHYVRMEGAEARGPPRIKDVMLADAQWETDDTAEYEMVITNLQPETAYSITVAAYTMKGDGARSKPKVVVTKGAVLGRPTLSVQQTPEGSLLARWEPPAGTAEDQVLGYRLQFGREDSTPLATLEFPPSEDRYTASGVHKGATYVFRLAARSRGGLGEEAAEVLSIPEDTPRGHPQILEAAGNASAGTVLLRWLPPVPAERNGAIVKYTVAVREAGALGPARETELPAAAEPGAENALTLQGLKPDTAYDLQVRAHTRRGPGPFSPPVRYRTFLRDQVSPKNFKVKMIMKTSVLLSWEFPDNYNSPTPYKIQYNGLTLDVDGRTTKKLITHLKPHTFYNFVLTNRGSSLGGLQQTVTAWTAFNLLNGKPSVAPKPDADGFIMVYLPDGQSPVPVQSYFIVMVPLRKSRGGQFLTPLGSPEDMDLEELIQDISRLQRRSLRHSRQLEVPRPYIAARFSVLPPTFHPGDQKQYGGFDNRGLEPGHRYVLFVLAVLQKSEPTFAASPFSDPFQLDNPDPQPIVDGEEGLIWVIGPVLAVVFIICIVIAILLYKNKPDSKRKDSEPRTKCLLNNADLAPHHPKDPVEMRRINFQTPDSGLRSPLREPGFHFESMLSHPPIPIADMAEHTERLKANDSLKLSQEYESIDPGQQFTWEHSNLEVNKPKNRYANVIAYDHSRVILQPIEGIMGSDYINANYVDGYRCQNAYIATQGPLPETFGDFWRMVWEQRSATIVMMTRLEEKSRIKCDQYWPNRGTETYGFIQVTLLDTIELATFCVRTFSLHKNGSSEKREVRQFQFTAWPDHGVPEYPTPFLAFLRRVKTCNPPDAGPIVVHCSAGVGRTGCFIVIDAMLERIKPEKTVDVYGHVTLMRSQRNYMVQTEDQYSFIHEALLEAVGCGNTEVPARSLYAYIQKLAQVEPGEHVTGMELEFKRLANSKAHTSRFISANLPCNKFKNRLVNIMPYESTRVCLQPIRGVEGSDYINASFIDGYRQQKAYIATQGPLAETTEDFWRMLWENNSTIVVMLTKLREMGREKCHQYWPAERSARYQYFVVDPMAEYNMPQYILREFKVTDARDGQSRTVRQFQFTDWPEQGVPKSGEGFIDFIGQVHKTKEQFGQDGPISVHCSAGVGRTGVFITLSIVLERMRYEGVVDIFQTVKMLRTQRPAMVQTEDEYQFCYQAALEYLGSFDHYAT

Take `CCCCOc1cc2c(c(C=O)c1OC)CC(O)OC2=O` (stereo not shown) [Compound 1, reference compound]: the pIC50 was 5.40 in test [1] (setting [6]); 5.40 in test [1] (setting [7]); 4.56 in test [2] (setting [8]); 4.56 in test [2] (setting [9]); 5.64 in test [3] (read-out: PTPRD IC50, Table 4, mean (SEM) of three independent experiments, * = instability, no valid triplicate); 5.64 in test [3] (setting [10]). The pIC50 in test [4] is 3.67; in test [5] (setting [8]), 5.90; in test [5] (setting [9]), 5.90.
With `COc1c(OCc2ccccc2)cc2c(c1C=O)CC(O)OC2=O` (stereo not shown) [Compound 27, 7-(Benzyloxy)-3-hydroxy-6-methoxy-1-oxoisochromane-5-carbaldehyde], the negative logarithm of the IC50 (pIC50) in test [1] (setting [6]) was 5.44; in test [1] (setting [7]), 5.44; in test [2] (setting [8]), 4.33; in test [2] (setting [9]), 4.33; in test [3] (setting [10]), 5.79; in test [4] it was 3.77. In addition, the pIC50 in test [5] (setting [8]) and in test [5] (setting [9]) was 5.80 throughout.
Turning to `COc1c(OCc2ccc(C)cc2)cc2c(c1C=O)CC(O)OC2=O` (stereo not shown) [Compound 29, 3-Hydroxy-6-methoxy-7-((4-methylbenzyl)oxy)-1-oxoisochromane-5-carbaldehyde], the pIC50 in test [1] (setting [6]) is 5.18; in test [1] (setting [7]), 5.18; in test [2] (setting [8]), 4.42; in test [2] (setting [9]), 4.42; in test [3] (setting [11]) it was 5.42; in test [3] (setting [12]), 5.42. Moreover, the negative logarithm of the IC50 (pIC50) in test [4] was 3.83; in test [5] (setting [8]), 5.45; in test [5] (setting [9]), 5.45.
For `COc1c(OCc2ccc(Br)cc2)cc2c(c1C=O)CC(O)OC2=O` (stereo not shown) [Compound 39, 7-((4-Bromobenzyl)oxy)-3-hydroxy-6-methoxy-1-oxoisochromane-5-carbaldehyde], the pIC50 was 5.42 in test [1] (setting [6]); 5.42 in test [1] (setting [7]); 4.52 in test [2] (setting [8]); 4.52 in test [2] (setting [9]); 5.30 in test [5] (setting [8]); 5.30 in test [5] (setting [9]).
For the compound `COc1c(OCc2ccc(Cl)cc2Cl)cc2c(c1C=O)CC(O)OC2=O` (stereo not shown) [Compound 40, 7-((2,4-Dichlorobenzyl)oxy)-3-hydroxy-6-methoxy-1-oxoisochromane-5-carbaldehyde], the pIC50 was 5.45 in test [1] (setting [6]); 5.45 in test [1] (setting [7]); 4.84 in test [2] (setting [8]); 4.84 in test [2] (setting [9]); 4.12 in test [4]; 5.99 in test [5] (setting [8]). Moreover, the negative logarithm of the IC50 (pIC50) in test [5] (setting [9]) is 5.99.
Take `COc1c(OCc2c(Cl)cc(Cl)cc2Cl)cc2c(c1C=O)CC(O)OC2=O` (stereo not shown) [Compound 42]: the pIC50 is 4.63 in test [2] (setting [8]); 4.63 in test [2] (setting [9]); 5.61 in test [3] (setting [11]); 5.60 in test [3] (setting [12]); 4.54 in test [4]; 5.67 in test [5] (setting [8]). Further, the pIC50 in test [5] (setting [9]) was 5.66.
Turning to `COc1c(OCc2ccc(Oc3ccc(F)cc3)cc2)cc2c(c1C=O)CC(O)OC2=O` (stereo not shown) [Compound 44, 7-((4-(4-Fluorophenoxy)benzyl)oxy)-3-hydroxy-6-methoxy-1-oxoisochromane-5-carbaldehyde], the negative logarithm of the IC50 (pIC50) in test [3] (setting [11]) and in test [3] (setting [12]) was 5.60 in each case.
As for `COc1c(OCc2ccc(C)s2)cc2c(c1C=O)CC(O)OC2=O` (stereo not shown) [Compound 46, 3-Hydroxy-6-methoxy-7-((5-methylthiophen-2-yl)methoxy)-1-oxoisochromane-5-carbaldehyde], the negative logarithm of the IC50 (pIC50) in test [1] (setting [6]) is 5.46; in test [1] (setting [7]), 5.46; in test [2] (setting [8]), 4.70; in test [2] (setting [9]) it was 4.70; in test [3] (setting [11]), 6.04; in test [3] (setting [12]) it was 6.04. The pIC50 in test [5] (setting [8]) and in test [5] (setting [9]) was 5.85 each time.
Consider `COc1c(OCc2ccc3ccccc3c2)cc2c(c1C=O)CC(O)OC2=O` (stereo not shown) [Compound 49, 3-Hydroxy-6-methoxy-7-(naphthalen-2-ylmethoxy)-1-oxoisochromane-5-carbaldehyde], for which the negative-log IC50 (pIC50) in test [1] (setting [6]) was 5.23; in test [1] (setting [7]) it was 5.23; in test [2] (setting [8]), 4.48; in test [2] (setting [9]) it was 4.48; in test [4], 3.66; in test [5] (setting [8]), 5.34. Also, the negative-log IC50 (pIC50) in test [5] (setting [9]) is 5.34.
In the case of `COc1c(OCCc2ccccc2)cc2c(c1C=O)CC(O)OC2=O` (stereo not shown) [Compound 50, 3-Hydroxy-6-methoxy-1-oxo-7-phenethoxyisochromane-5-carbaldehyde], the pIC50 in test [2] (setting [8]) was 4.26; in test [2] (setting [9]), 4.26; in test [3] (setting [11]), 5.34; in test [3] (setting [12]), 5.34; in test [4], 3.66; in test [5] (setting [8]) it was 5.52. In addition, the negative-log IC50 (pIC50) in test [5] (setting [9]) was 5.52.
On to `COc1c(OCCCc2ccccc2)cc2c(c1C=O)CC(O)OC2=O` (stereo not shown) [Compound 52, 3-Hydroxy-6-methoxy-1-oxo-7-(3-phenylpropoxy)isochromane-5-carbaldehyde], for which the negative logarithm of the IC50 (pIC50) was 5.36 in test [1] (setting [6]), 5.36 in test [1] (setting [7]), 6.03 in test [5] (setting [8]) and 6.03 in test [5] (setting [9]).
In the case of `COc1c(OCCCCc2ccc(Cl)cc2)cc2c(c1C=O)CC(O)OC2=O` (stereo not shown) [Compound 53, 7-(4-(4-Chlorophenyl)butoxy)-3-hydroxy-6-methoxy-1-oxoisochromane-5-carbaldehyde], the negative logarithm of the IC50 (pIC50) in test [1] (setting [6]) was 5.25; in test [1] (setting [7]), 5.25; in test [2] (setting [8]) it was 4.54; in test [2] (setting [9]) it was 4.54; in test [4] it was 4.18; in test [5] (setting [8]) it was 5.51. The pIC50 in test [5] (setting [9]) was 5.51.
Turning to `COc1c(OCCCC(F)(F)F)cc2c(c1C=O)CC(O)OC2=O` (stereo not shown) [Compound 63, 3-Hydroxy-6-methoxy-1-oxo-7-(4,4,4-trifluorobutoxy)isochromane-5-carbaldehyde], the pIC50 in test [2] (setting [9]) is 3.97.
Take `COc1c(OCC2CC2)cc2c(c1C=O)CC(O)OC2=O` (stereo not shown) [Compound 64, 7-Cyclopropylmethoxy-3-hydroxy-6-methoxy-1-oxo-isochroman-5-carbaldehyde]: the negative-log IC50 (pIC50) in test [3] (setting [11]) and in test [3] (setting [12]) was 5.38 throughout.
With `COc1c(OCC2CCCCC2)cc2c(c1C=O)CC(O)OC2=O` (stereo not shown) [Compound 68, 7-Cyclohexylmethoxy-3-hydroxy-6-methoxy-1-oxo-isochroman-5-carbaldehyde], the pIC50 in test [1] (setting [6]) was 6.12; in test [1] (setting [7]), 6.12; in test [2] (setting [9]), 6.25; in test [4] it was 4.00; in test [5] (setting [8]), 5.97; in test [5] (setting [9]), 5.97.
Take `COc1c(OCC2CCCCCC2)cc2c(c1C=O)CC(O)OC2=O` (stereo not shown) [Compound 69]: the pIC50 was 5.94 in test [1] (setting [6]); 5.94 in test [1] (setting [7]); 5.01 in test [2] (setting [8]); 5.01 in test [2] (setting [9]); 4.57 in test [4]; 6.11 in test [5] (setting [8]). Besides, the pIC50 in test [5] (setting [9]) is 6.11.
